The values below come from patent publication US8524755B2 (priority 2009, dated 2013).

The target of one experiment is T1, Dopamine D4.4 (h) (Homo sapiens, UniProt P21917).
T1 construct: expressed in transfected cells; host or cells: CHO cells
T1 sequence (P21917 1-419): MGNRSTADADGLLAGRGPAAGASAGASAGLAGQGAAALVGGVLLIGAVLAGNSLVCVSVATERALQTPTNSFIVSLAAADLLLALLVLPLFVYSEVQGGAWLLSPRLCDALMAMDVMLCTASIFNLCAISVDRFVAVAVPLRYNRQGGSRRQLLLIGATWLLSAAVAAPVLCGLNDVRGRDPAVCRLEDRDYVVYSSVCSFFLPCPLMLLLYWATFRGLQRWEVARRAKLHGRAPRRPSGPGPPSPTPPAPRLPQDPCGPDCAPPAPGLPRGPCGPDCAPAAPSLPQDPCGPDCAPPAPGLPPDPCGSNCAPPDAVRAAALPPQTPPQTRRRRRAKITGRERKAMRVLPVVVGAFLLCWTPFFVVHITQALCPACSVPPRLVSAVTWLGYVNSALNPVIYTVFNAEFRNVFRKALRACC
As to the kind of experiment: Binding D4.4 (h) (aa). The following applies: read-out: % Inhibition of Control Specific Binding @ 10 μM. The protocol:
(§1) Radioligand binding assay methods utilized to measure the activity of compounds of the invention will be familiar to those skilled in the art. In each assay case, the assay components such as, for example, the cell-type, ligand, reference compound and the like, will be familiar to practitioners of such an assay.
(§2) Analysis and Expression of Results: Compounds of the invention were tested in the biochemical assays and percent inhibition of specific binding was determined. The specific ligand binding to the receptors is defined as the difference between the total binding and the nonspecific binding determined in the presence of an excess of unlabelled ligand. The results are expressed as a percent inhibition of control specific binding (100−((measured specific binding/control specific binding)×100)) obtained in the presence of test compounds.

The next experiment has as its system Neuropeptide Y (ns). As to the kind of experiment: Binding Y (ns) (ag). Also on record: species or system rat. Here is the method: as §1, §2
A further experiment concerns GABA (ns). Kind of experiment: Binding GABA (ns) (ag). Also on record: species or system rat. The protocol: as §1, §2
For the next experiment, the target named is T2, Vasopressin V1a (h) (Homo sapiens, UniProt P37288).
T2 construct: expressed in transfected cells; host or cells: CHO cells
As to the kind of experiment: Binding V1a (h) (ag). The following applies: read-out: % Inhibition of Control Specific Binding @ 10 μM. The protocol:
as §1, §2

For another experiment, the target named is T3, Adenosine A1 (h) (Homo sapiens, UniProt P30542).
T3 construct: expressed in transfected cells; host or cells: CHO cells
T3 sequence (P30542 1-326): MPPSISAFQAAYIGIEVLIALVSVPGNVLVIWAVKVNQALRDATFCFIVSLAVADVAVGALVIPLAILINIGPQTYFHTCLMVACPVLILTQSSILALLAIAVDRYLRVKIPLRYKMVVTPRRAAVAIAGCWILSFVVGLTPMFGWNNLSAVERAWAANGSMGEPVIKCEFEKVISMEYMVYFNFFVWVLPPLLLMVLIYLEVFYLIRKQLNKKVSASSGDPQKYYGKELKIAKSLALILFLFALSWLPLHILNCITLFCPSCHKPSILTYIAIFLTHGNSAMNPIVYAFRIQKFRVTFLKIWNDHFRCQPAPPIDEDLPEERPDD
Kind of experiment: Binding A1 (h) (aa). The following applies: read-out: % Inhibition of Control Specific Binding @ 10 μM. Here is the method:
as §1, §2

A further experiment concerns the target T4, Bradykinin B1 (h) (Homo sapiens, UniProt P46663).
T4 construct: expressed in transfected cells; host or cells: CHO cells
T4 sequence (P46663 1-353): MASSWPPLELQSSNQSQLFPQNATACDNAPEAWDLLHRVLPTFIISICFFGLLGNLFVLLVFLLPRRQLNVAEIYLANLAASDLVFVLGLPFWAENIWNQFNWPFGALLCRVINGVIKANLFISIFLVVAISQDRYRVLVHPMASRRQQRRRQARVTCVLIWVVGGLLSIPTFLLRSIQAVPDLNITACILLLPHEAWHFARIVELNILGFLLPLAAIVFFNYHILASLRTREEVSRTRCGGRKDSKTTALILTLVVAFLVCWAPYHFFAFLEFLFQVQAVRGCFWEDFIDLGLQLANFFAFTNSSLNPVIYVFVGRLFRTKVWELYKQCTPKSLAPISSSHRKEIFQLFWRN
Kind of experiment: Binding B1 (h) (ag). The note with it: read-out: % Inhibition of Control Specific Binding @ 10 μM. Here is the method: as §1, §2

Another experiment deals with KATP channel. As to the kind of experiment: Binding KATP channel (aa). Details: species or system rat. The protocol:
as §1, §2

A further experiment addresses T5, Dopamine D1 (h) (Homo sapiens, UniProt P21728).
T5 construct: expressed in transfected cells; host or cells: CHO cells
As to the kind of experiment: Binding D1 (h) (aa). The note with it: read-out: % Inhibition of Control Specific Binding @ 10 μM. Here is the method: as §1, §2

The next experiment deals with T6, Somatostatin sst5 (h) (Homo sapiens, UniProt P35346).
T6 construct: expressed in transfected cells; host or cells: CHO cells
Kind of experiment: Binding sst5 (h) (ag). The following applies: read-out: % Inhibition of Control Specific Binding @ 10 μM. Here is the method: as §1, §2

Another experiment deals with T7, dopamine transporter (h) (Homo sapiens, UniProt Q01959).
T7 construct: expressed in transfected cells; host or cells: CHO cells
As to the kind of experiment: Binding dopamine transporter (h) (aa). The following applies: read-out: % Inhibition of Control Specific Binding @ 10 μM. The protocol: as §1, §2

The target of another experiment is T8, PKCα (h) (Homo sapiens, UniProt P17252).
T8 construct: host or cells: insect cells
As to the kind of experiment: Enzyme assay PKCα (h). Type of experiment: biochemical. The note with it: read-out: % Inhibition of Control Values @ 10 μM. From the text:
The enzyme assays provided below will be familiar to those skilled in the art.
Analysis and Expression of Results: The results are expressed as a percent of control specific activity ((measured specific activity/control specific activity)×100) obtained in the presence of the test compounds.

The target in the next experiment is T9, Angiotensin AT1 (h) (Homo sapiens, UniProt P30556).
T9 construct: expressed in transfected cells; host or cells: HEK-293 cells
T9 sequence (P30556 1-359): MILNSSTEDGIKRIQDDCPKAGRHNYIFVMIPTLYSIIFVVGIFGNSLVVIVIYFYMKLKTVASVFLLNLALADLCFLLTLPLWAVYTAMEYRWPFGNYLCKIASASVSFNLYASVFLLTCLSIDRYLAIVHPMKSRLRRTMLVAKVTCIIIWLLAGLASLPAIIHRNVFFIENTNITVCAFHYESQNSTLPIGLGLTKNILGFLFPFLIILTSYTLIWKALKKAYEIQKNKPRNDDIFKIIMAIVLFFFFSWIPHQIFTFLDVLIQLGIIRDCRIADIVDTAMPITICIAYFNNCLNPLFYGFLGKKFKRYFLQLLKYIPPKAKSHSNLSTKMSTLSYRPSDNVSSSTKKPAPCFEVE
Kind of experiment: Binding AT1 (h) (aa). The following applies: read-out: % Inhibition of Control Specific Binding @ 10 μM. Here is the method:
as §1, §2

For a further experiment, the target named is T10, Angiotensin AT2 (h) (Homo sapiens, UniProt P50052).
T10 construct: expressed in transfected cells; host or cells: CHO cells
T10 sequence (P50052 1-363): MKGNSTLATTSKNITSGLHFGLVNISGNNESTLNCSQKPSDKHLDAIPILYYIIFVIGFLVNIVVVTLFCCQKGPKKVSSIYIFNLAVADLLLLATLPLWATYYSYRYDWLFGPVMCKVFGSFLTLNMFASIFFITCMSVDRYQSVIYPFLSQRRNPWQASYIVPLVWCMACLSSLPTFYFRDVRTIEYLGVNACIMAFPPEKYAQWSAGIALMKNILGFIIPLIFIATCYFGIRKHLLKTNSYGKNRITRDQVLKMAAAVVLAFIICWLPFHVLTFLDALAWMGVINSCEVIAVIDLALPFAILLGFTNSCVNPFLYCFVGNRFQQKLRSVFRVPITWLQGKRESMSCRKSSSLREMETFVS
Kind of experiment: Binding AT2 (h). The following applies: AT2 (h) (aa), read-out: % Inhibition of Control Specific Binding @ 10 μM. The protocol:
as §1, §2

T7 sequence (Q01959 whole entry): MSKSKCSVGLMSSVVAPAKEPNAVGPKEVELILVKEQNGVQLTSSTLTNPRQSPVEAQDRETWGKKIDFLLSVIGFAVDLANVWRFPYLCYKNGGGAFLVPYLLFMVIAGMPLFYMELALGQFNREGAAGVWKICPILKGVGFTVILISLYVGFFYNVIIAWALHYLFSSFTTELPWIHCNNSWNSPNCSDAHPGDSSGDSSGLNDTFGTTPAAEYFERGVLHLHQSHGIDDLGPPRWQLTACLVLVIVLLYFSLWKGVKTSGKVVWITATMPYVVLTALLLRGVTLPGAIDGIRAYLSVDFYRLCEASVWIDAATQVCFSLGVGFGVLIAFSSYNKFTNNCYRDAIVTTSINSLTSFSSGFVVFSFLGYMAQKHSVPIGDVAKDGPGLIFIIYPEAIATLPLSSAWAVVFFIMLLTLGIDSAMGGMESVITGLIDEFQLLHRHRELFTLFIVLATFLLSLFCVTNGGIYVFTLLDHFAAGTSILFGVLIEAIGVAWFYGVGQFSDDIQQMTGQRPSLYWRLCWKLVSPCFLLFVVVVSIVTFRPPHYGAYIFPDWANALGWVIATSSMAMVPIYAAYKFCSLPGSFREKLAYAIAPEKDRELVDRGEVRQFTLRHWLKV
T5 sequence (P21728 whole entry): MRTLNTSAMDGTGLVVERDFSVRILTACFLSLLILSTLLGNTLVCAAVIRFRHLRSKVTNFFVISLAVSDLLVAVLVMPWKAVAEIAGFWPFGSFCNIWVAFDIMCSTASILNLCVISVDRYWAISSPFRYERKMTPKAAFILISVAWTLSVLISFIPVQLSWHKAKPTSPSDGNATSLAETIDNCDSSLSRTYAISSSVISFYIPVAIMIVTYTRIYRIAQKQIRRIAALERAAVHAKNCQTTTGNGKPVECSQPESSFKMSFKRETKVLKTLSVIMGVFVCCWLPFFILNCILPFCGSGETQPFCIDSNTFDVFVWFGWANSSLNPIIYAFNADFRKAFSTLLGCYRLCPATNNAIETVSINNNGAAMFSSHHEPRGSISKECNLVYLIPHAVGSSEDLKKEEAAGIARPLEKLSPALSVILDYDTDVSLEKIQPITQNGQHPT
T6 sequence (P35346 whole entry): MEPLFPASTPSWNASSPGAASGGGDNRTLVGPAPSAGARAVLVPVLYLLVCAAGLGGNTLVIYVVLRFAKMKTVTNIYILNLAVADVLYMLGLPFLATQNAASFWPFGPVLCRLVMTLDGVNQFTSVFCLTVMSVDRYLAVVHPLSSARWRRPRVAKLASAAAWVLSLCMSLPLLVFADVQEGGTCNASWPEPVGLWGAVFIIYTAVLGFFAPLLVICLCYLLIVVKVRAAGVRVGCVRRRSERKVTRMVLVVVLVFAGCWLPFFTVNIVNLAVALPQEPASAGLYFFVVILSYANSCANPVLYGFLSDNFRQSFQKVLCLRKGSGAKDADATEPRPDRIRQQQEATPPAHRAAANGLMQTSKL
T2 sequence (P37288 whole entry): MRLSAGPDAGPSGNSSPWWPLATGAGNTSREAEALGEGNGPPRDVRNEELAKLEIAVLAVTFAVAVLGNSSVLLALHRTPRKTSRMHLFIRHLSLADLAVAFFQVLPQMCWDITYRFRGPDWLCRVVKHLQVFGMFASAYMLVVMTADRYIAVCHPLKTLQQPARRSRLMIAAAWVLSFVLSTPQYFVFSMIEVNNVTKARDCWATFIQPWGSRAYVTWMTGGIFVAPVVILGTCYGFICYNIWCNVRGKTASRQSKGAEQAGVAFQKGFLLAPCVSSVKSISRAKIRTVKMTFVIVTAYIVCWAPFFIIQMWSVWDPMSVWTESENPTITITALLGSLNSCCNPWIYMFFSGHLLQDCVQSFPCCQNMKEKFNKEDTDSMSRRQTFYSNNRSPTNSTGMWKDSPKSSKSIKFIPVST

Turning to `CC1(C)C(=O)N(c2ccc(C#N)c(C(F)(F)F)c2)C(=O)N1c1ccc(C(N)=O)c(F)c1` [(MIII), 4-(3-(4-cyano-3-(trifluoromethyl)phenyl)-5,5-dimethyl-2,4-dioxoimidazolidin-1-yl)-2-fluorobenzamide], the inhibition at 10 µM at Dopamine D4.4 (h) was 13%; on Vasopressin V1a (h), -1%; at Adenosine A1 (h) it was 2%; on Bradykinin B1 (h), 5%; on Dopamine D1 (h), -17%; at Somatostatin sst5 (h) it was 2%. Also, the inhibition at 10 µM is 13% on dopamine transporter (h), 3% at PKCα (h), 6% on Angiotensin AT1 (h) and -2% at Angiotensin AT2 (h). For the same molecule, the “% Inhibition of Control Specific Binding @ 10 μM” value (from here on “% Inhibition”) in the experiment on Neuropeptide Y (ns) is on record as −2%; in the experiment with GABA (ns) it was −10%; in the experiment on KATP channel, 7%.

As to `CNC(=O)c1ccc(N2C(=O)N(c3ccc(C#N)c(C(F)(F)F)c3)C(=O)C2(C)C)cc1F` [(MIV), 4-(3-(4-cyano-3-(trifluoromethyl)phenyl)-5,5-dimethyl-2,4-dioxoimidazolidin-1-yl)-2-fluoro-N-methylbenzamide], the inhibition at 10 µM on Dopamine D4.4 (h) was -15%; at Vasopressin V1a (h), -8%; on Adenosine A1 (h) it was 6%; at Bradykinin B1 (h), 4%; on Dopamine D1 (h) it was -17%; at Somatostatin sst5 (h), -7%. Also, the inhibition at 10 µM was 7% at dopamine transporter (h), 5% on PKCα (h), 0% on Angiotensin AT1 (h) and 1% at Angiotensin AT2 (h). In addition, the “% Inhibition” value in the experiment with Neuropeptide Y (ns) is given as −2%; in the experiment with GABA (ns), 5%; in the experiment with KATP channel, 7%.

Take `CC1(C)C(=O)N(c2ccc(C#N)c(C(F)(F)F)c2)C(=S)N1c1ccc(C(N)=O)c(F)c1` [(MII), 4-(3-(4-Cyano-3-(trifluoromethyl)phenyl)-5,5-dimethyl-4-oxo-2-thioxoimidazolidin-1-yl)-2-fluorobenzamide]: the inhibition at 10 µM at Dopamine D4.4 (h) is 9%; on Vasopressin V1a (h), 15%; on Adenosine A1 (h), 9%; on Bradykinin B1 (h) it was 6%; at Dopamine D1 (h) it was -14%; at Somatostatin sst5 (h), 16%. Also, the inhibition at 10 µM at dopamine transporter (h) was 23%; on PKCα (h), 6%; on Angiotensin AT1 (h), 0%; at Angiotensin AT2 (h), -6%. The “% Inhibition” value in the experiment with Neuropeptide Y (ns) was −6%; with GABA (ns), 0%; in the experiment on KATP channel, 24%.

`CC1(C)C(=O)N(c2ccc(C#N)c(C(F)(F)F)c2)C(=S)N1c1ccc(C(=O)O)c(F)c1` [(MI), 4-(3-(4-cyano-3-(trifluoromethyl)phenyl)-5,5-dimethyl-4-oxo-2-thioxoimidazolidin-1-yl)-2-fluorobenzoic acid]: the inhibition at 10 µM at Dopamine D4.4 (h) was 1%; on Vasopressin V1a (h), 2%; at Adenosine A1 (h) it was 10%; on Bradykinin B1 (h), 0%; on Dopamine D1 (h), -18%; at Somatostatin sst5 (h) it was -25%. Moreover, the inhibition at 10 µM at dopamine transporter (h) was 32%; at PKCα (h), 4%; at Angiotensin AT1 (h), 11%; on Angiotensin AT2 (h), -1%. In addition, the “% Inhibition” value in the experiment on Neuropeptide Y (ns) is reported as −6%; in the experiment with GABA (ns) it was −12%; with KATP channel, 17%.
